From patent publication US20210369853A1, “TARGETED PROTEASE DEGRADATION PLATFORM” (EUBULUS BIOTHERAPEUTICS INC., priority 2018, published 2021) come the findings set out here.

Common to all, as to format: cell-based
Test [1] deals with HUVEC. The test can be described thus: Cell proliferation experiment (EC50), HUVEC. As to conditions: Homo sapiens.
The target in test [2] is T1, PLK1 (Homo sapiens, UniProt P53350).
T1 construct: endogenous in cells
As to the kind of experiment: Western blot, protein degradation (DC50). As to conditions: 6 h; read-out: PLK1 DC50 (6 h). Summed up: (§1)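 Cells treated with compound, lysed in RIPA and resolved by SDS-PAGE (4%-12%); PVDF blots probed with primary antibody overnight at 4° C, then secondary antibody, and developed with ECL. Band intensities quantified by densitometry to give degradation.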
On the technique in general: A western blot detects proteins with antibodies after separation by electrophoresis.

Test [3] relates to Human Colon Cancer HCT-116. As to the kind of experiment: Cell proliferation experiment (Alarm blue, 72 h, EC50). The conditions noted are these: Homo sapiens, HCT-116; HCT116 cells. In outline:
(§2)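 Log-phase cells, passaged at least 2 generations, were seeded in 96-well plates and exposed to test compound in complete medium as a 5-fold dilution series in duplicate for 72 h. Fluorescence was read by Alamar blue and EC50 fitted to a four-parameter curve (Min, Max, Slope).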

For test [4], the system named is Human Monocytic Leukemia MV4-11. The description is as above. As to conditions: Homo sapiens, MV4-11, MV4;11 cells. In outline:
as §2

Test [5] deals with PBMC. As to the kind of experiment: Cell proliferation experiment (EC50), PBMC.
For test [6], the target named is T2, BRD4 (Homo sapiens, UniProt O60885).
T2 construct: endogenous in cells
The test can be described thus: Western blot, protein degradation (DC50). As to conditions: 6 h; read-out: BRD4 DC50 (6 h). In outline: as §1

Test [7] concerns Human Colon Cancer HT-29. As to the kind of experiment: Cell proliferation experiment (Alarm blue, 72 h, EC50). As to conditions: Homo sapiens; HT-29 cells. In outline: as §2
The test system of test [8] is Human Glioma Cells U-87 MG. Described as above. As to conditions: Homo sapiens; U-87MG cells. Summed up:
as §2

Test [9] has as its system Human Small Cell Lung Cancer NCI-H82. The test is described as above. The conditions noted are these: Homo sapiens, NCI-H82; NCIH82 cells. Summed up:
as §2

The subject of test [10] is Daudi. The test can be described thus: Cell proliferation experiment (EC50), Daudi. As to conditions: Homo sapiens; Daudi cells.

T1 sequence (P53350 whole entry): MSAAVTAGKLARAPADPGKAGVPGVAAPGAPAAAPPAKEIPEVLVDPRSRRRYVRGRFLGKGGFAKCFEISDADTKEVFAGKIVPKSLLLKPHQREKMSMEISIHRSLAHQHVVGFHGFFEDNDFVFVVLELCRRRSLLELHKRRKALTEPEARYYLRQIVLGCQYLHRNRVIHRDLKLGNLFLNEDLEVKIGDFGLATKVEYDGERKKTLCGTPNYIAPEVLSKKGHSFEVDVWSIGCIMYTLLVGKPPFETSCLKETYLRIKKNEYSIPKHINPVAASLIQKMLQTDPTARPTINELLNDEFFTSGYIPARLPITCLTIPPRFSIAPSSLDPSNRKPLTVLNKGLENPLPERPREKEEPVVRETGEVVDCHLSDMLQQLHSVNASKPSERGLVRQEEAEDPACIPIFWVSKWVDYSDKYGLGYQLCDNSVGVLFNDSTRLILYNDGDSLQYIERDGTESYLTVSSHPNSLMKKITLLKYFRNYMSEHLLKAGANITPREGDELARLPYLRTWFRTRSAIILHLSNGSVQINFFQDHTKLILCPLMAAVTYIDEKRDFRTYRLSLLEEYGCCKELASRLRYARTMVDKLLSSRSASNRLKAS

For the compound `O=C1CCC(N2Cc3c(NC(=O)CNCCOCCN4CCN(CCNC(=O)[C@]5(Cc6cccc(Nc7nccs7)n6)CC[C@@H](Oc6cccc(Cl)c6F)CC5)CC4)cccc3C2=O)C(=O)N1` (stereo partly shown) [UB-180810], the EC50 in test [1] was above 1000 nM; in [3] it was 100 to 1000 nM; in [4], 100 to 1000 nM; in [5], above 1000 nM. Further, the DC50 in [2] was below 10 nM.
As for `CC[C@@H]1C(=O)N(C)c2cnc(Nc3ccc(C(=O)NCCOCCOCCOCCOCCNCC#Cc4cccc5c4CN(C4CCC(=O)NC4=O)C5=O)cc3OC)nc2N1C1CCCC1` (stereo partly shown) [UB-180844], the DC50 in test [6] and in test [2] was 10 to 100 nM each time. For the same compound, the EC50 was 100 to 1000 nM in test [7]; 100 to 1000 nM in test [8]; 100 to 1000 nM in test [9]; below 10 nM in test [4]; 100 to 1000 nM in [10].
Consider `CC[C@@H]1C(=O)N(C)c2cnc(Nc3ccc(C(=O)NCCOCCOCCNCC#Cc4cccc5c4CN(C4CCC(=O)NC4=O)C5=O)cc3OC)nc2N1C1CCCC1` (stereo partly shown) [UB-180845], for which the DC50 in [6] was below 10 nM. In addition, the EC50 in test [7] is 100 to 1000 nM; in test [8] it was 100 to 1000 nM; in test [9], 100 to 1000 nM; in test [4], below 10 nM; in test [10] it was 100 to 1000 nM.
Turning to `CC[C@@H]1C(=O)N(C)c2cnc(Nc3ccc(C(=O)NCCOCCOCCOCCNCC#Cc4cccc5c4CN(C4CCC(=O)NC4=O)C5=O)cc3OC)nc2N1C1CCCC1` (stereo partly shown) [UB-180846], the DC50 in test [6] is 10 to 100 nM. In addition, the EC50 in test [7] is 100 to 1000 nM; in test [8], 100 to 1000 nM; in test [9], 100 to 1000 nM; in test [4], below 10 nM; in test [10], 100 to 1000 nM.
Regarding `CC[C@@H]1C(=O)N(C)c2cnc(Nc3ccc(C(=O)NCCOCCOCCOCCNCCCc4cccc5c4CN(C4CCC(=O)NC4=O)C5=O)cc3OC)nc2N1C1CCCC1` (stereo partly shown) [UB-180847], the EC50 in test [7], in test [8], in test [9], in [4] and in [10] was 100 to 1000 nM in each case.
Turning to `CC[C@@H]1C(=O)N(C)c2cnc(Nc3ccc(C(=O)NCc4cn(CCN(C)CCC(=O)Nc5cccc6c5CN(C5CCC(=O)NC5=O)C6=O)nn4)cc3OC)nc2N1C1CCCC1` (stereo partly shown) [UB-180848], the EC50 was 100 to 1000 nM in [7]; 100 to 1000 nM in test [8]; 100 to 1000 nM in test [9]; below 10 nM in test [4]; 100 to 1000 nM in test [10].
With `CC[C@@H]1C(=O)N(C)c2cnc(Nc3ccc(C(=O)NC4CCN(CCOCCN(CCO)CC(=O)Nc5cccc6c5CN(C5CCC(=O)NC5=O)C6=O)CC4)cc3OC)nc2N1C1CCCC1` (stereo partly shown) [UB-180849], the EC50 in test [7], in test [8], in [9], in test [4] and in [10] was 100 to 1000 nM each time.
As for `CC[C@@H]1C(=O)N(C)c2cnc(Nc3ccc(C(=O)NCCCC[C@@H](N)C(=O)Nc4cccc5c4CN(C4CCC(=O)NC4=O)C5=O)cc3OC)nc2N1C1CCCC1` (stereo partly shown) [UB-180855], the EC50 in [7], in test [8], in [9], in [4] and in test [10] was 100 to 1000 nM in each case.
Take `CC[C@@H]1C(=O)N(C)c2cnc(Nc3ccc(C(=O)NCCC[C@@H](N)C(=O)Nc4cccc5c4CN(C4CCC(=O)NC4=O)C5=O)cc3OC)nc2N1C1CCCC1` (stereo partly shown) [UB-180856]: the EC50 in test [7], in test [8], in test [9], in test [4] and in test [10] was 100 to 1000 nM each time.

Usually EC50 stands for the concentration needed to bring the measured effect to its halfway point. Low readings indicate greater potency, high ones weaker potency. What is called DC50 is the concentration at which degradation of the target reaches its halfway point.
